Results reported in patent US6380235B1, “Benzimidazolones and analogues” (American Home Products Corporation, priority 1999, dated 2002).
Where “and” joins values, the source holds several entries; their conditions need not be identical. Equal values may be shown once.

Legend:
[1] = tested on: rat uterine decidualization; test: Rat decidualization assay; format: in vivo; conditions: ovariectomized female Sprague-Dawley rats; for Estimated average EC50 for dose-response curves (decidual response): s.c.
Procedure: 2. Rat Decidualization Assay
b. Animals (RACUC Protocol #5002)
The animals are treated once daily for seven days.
Uteri are removed and trimmed of fat.
Body weight: Mean total animal body weight (default-kg)
Decidual response: [(D-C)/C]×100%

[2] = target: T1, human PR (Homo sapiens, UniProt P06401); test: PRE-luciferase assay in CV-1 cells (hPR CV-1); format: cell-based
T1 construct: expressed in transfected cells; host or cells: CV-1 cells, electroporated with pLEM-hPR-B and pGL3-2xPRE-luciferase
T1 sequence (P06401 1-933): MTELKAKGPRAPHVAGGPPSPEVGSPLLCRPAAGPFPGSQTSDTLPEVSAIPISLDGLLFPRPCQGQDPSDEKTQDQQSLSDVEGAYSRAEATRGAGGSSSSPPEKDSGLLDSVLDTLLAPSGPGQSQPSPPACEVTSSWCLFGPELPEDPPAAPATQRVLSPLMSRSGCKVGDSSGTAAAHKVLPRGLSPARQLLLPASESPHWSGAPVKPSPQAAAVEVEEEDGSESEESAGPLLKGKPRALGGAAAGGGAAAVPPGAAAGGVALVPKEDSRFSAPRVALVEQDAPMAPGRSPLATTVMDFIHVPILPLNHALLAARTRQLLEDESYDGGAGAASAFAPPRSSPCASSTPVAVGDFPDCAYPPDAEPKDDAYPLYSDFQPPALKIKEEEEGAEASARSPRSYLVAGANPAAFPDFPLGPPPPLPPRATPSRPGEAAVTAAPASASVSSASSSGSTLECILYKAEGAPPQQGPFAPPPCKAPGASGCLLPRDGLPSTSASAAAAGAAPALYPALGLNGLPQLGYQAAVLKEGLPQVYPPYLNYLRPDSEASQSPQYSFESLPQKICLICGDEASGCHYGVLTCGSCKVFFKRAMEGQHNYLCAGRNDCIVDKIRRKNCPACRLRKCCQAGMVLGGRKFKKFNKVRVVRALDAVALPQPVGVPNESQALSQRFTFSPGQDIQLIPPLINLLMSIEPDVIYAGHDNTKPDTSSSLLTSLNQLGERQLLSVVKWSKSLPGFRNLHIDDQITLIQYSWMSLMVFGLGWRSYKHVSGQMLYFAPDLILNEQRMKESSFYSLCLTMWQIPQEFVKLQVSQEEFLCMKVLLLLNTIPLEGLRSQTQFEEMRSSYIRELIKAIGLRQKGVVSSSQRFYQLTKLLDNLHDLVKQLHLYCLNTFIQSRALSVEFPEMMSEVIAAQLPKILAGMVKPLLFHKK
Procedure: 3. PRE-luciferase Assay in CV-1 Cells
The object of this assay is to determine a compound's progestational or antiprogestational potency based on its effect on PRE-luciferase reporter activity in CV-1 cells co-transfected with human PR and PRE-luciferase plasmids. The materials methods used in the assay are as follows.
DMEM (BioWhittaker) containing 10% (v/v) fetal bovine serum (heat inactivated), 0.1 mM MEM non-essential amino acids, 100 U/ml penicillin, […] streptomycin, and 2 mM GlutaMax (GIBCO, BRL). Experimental medium: DMEM (BioWhittaker), phenol red-free, containing 10% (v/v) charcoal-stripped fetal bovine serum (heat-inactivated), 0.1 mM MEM non-essential amino acids, 100 U/ml penicillin, […] streptomycin, and 2 mM GlutaMax (GIBCO, BRL).
b. Cell Culture Transfection Treatment, and Luciferase Assay
Stock CV-1 cells are maintained in growth medium. Co-transfection is done using 1.2×10^7 cells, […] pLEM plasmid with hPR-B inserted at Sphl and BamHl sites, 10 mg pGL3 plasmid with two PREs upstream of the luciferase sequence, and 50 mg sonicated calf thymus DNA as carrier DNA in […]. Electroporation is carried out at 260 V and […] in a Biorad Gene Pulser II. After electroporation, cells are resuspended in growth medium and plated in 96-well plate at 40,000 cells/well in 200 μl. Following overnight incubation, the medium is changed to experimental medium. […] Twenty-four hr. after treatment, the medium is discarded, cells are washed three times with D-PBS (GIBCO, BRL). Fifty μl of cell lysis buffer (Promega, Madison, Wis.) is added to each well and the plates are shaken for 15 min in a Titer Plate Shaker (Lab Line Instrument, Inc.). Luciferase activity is measured using luciferase reagents from Promega.
Each treatment consists of at least 4 replicates. Log transformed data are used for analysis of variance and nonlinear dose response curve fitting for both agonist and antagonist modes. Huber weighting is used to downweight the effects of outliers. EC50 or IC50 values are calculated from the retransformed values.

[3] = tested on: alkaline phosphatase activity in T47D cells; test: T47D cell alkaline phosphatase assay; format: cell-based; conditions: antagonist activity in the presence of 1 nM progesterone, 24 hr
Procedure: 4. T47D Cell Alkaline Phosphatase Assay
The purpose of this assay is to identify progestins or antiprogestins by determining a compound's effect on alkaline phosphatase activity in T47D cells.
DMEM:F12 (1:1) (GIBCO, BRL) supplemented with 5% (v/v) charcoal stripped fetal bovine serum (not heat-inactivated), 100 U/ml penicillin, 100 μg/ml streptomycin, and 2 mM GlutaMax (GIBCO, BRL). b. Alkaline Phosphatase Assay Buffer
I. 0.1 M Tris-HCl, pH 9.8, containing 0.2% Triton X-100
II. 0.1 M Tris-HCl, pH 9.8 containing 4 mM p-nitrophenyl phosphate (Sigma). c. Cell Culture and Treatment
Frozen T47D cells were thawed in a 37° C. water bath and diluted to 280,000 cells/ml in culture medium. To each well in a 96-well plate (Falcon, Becton Dickinson Labware), 180 μl of diluted cell suspension was added. Twenty μl of reference or test compounds diluted in the culture medium was then added to each well. […] The cells were incubated at 37° C. in a 5% CO2/humidified atmosphere for 24 hr. […]
d. Alkaline Phosphatase Enzyme Assay
At the end of treatment, the medium was removed from the plate and fifty μl of assay buffer I was added to each well. The plates were shaken in a titer plate shaker for 15 min. […]
For reference and test compounds, a dose response curve is generated for dose (X-axis) vs. the rate of enzyme reaction (slope) (Y-axis). […] EC50 or IC50 values are calculated from the retransformed values.

[4] = tested on: T47D cells; test: T47D cell proliferation assay (BrdU incorporation); format: cell-based
Procedure: 1. T47D Cell Proliferation Assay
The objective of this assay is the determination of progestational and antiprogestational potency by using a cell proliferation assay in T47D cells. A compound's effect on DNA synthesis in T47D cells is measured.
DMEM:F12 (1:1) (GIBCO, BRL) supplemented with 10% (v/v) fetal bovine serum (not heat-inactivated), 100 U/ml penicillin, […] streptomycin, and […] GlutaMax (GIBCO, BRL).
Minimum Essential Medium (MEM) (#51200-038GIBCO, BRL) phenol red-free supplemented with 0.5% charcoal stripped fetal bovine serum, 100 U/ml penicillin, […] streptomycin, and 2 mM GlutaMax (GIBCO, BRL). […]
At the end of BrdU labeling, the medium is removed and BrdU incorporation is measured using a cell proliferation ELISA kit (#RPN 250, Amersham Life Science) according to manufacturer's instructions. […] Then 25 μl of 1 M sulfuric acid is added to each well to stop color reaction and optical density is read in a plate reader at 450 nm within 5 min.
Square root-transformed data are used for analysis of variance and nonlinear dose response curve fitting for both agonist and antagonist modes. […] EC50 or IC50 values are calculated from the retransformed values.
Trimegestone and medroxyprogesterone acetate (MPA) are reference progestins and RU486 is the reference antiprogestin. All reference compounds are run in fill dose-response curves and the EC50 or IC50 values are calculated.

C#C[C@]1(O)CC[C@H]2[C@@H]3CCC4=CC(=O)CC[C@@H]4[C@H]3C(=C)C[C@@]21CC [3-Ketodesogestrel]
Estimated EC50 for uterine weight (decidual response) ([1]; s.c. once daily for seven days, individual studies): 0.10 mg/kg, s.c. and 0.06 mg/kg, s.c. and 0.11 mg/kg, s.c. | Estimated average EC50 for dose-response curves (decidual response) [1]: 0.10 mg/kg, s.c.

O=c1[nH]c2ccc(-c3cccc([N+](=O)[O-])c3)cc2n1Cc1ccccc1 [Compound 2, 1-Benzyl-6-(3-nitro-phenyl)-1,3-dihydro-benzoimidazol-2-one]
IC50 [2]: 230 nM

Cn1c(=O)[nH]c2cc(-c3cccc([N+](=O)[O-])c3)ccc21 [Compound 5]
IC50 [2]: 750 nM

CC(C)n1c(=O)[nH]c2ccc(-c3cccc([N+](=O)[O-])c3)cc21 [Compound 6]
IC50 [2]: 147 nM

CC(C)n1c(=O)[nH]c2ccc(-c3cccc(Cl)c3)cc21 [Compound 7]
IC50 [2]: 155 nM

O=C1CSc2cc(-c3cccc([N+](=O)[O-])c3)ccc2N1 [Compound B1, 7-(3-Nitro-phenyl)-4H-benzo[1,4]thiazin-3-one]
IC50 [2]: 220 nM

CCC1Sc2cc(-c3cccc([N+](=O)[O-])c3)ccc2NC1=O (stereo not shown) [Compound B2]
IC50 [2]: 295 nM

CN1CC(=O)Nc2ccc(-c3cccc(Cl)c3)cc21 [Compound C1, 6-(3-Chloro-phenyl)-4-methyl-3,4-dihydro-1H-quinoxalin-4-one]
IC50 [3]: 600 nM

O=C1CNc2cc(-c3cccc(Cl)c3)ccc2N1 [Compound C2]
IC50 [2]: 525 nM

CN1CC(=O)Nc2ccc(-c3cc(C#N)cs3)cc21 [Compound C3, 5-(3,4-Dihydro-4-methyl-2-oxo-quinaxalin-6-yl)thiophene-3-carbonitrile]
IC50 [3]: 300 nM

CCCCN1CC(=O)Nc2ccc(-c3cccc(Cl)c3)cc21 [Compound C6, 4-(n-Butyl)-6-(3-chloro-phenyl)-3,4-dihydro-1H quinoxalin-2-one]
melting point: 110 to 115 °C

CC(C)OC(=O)N1CC(=O)Nc2ccc(-c3cccc(Cl)c3)cc21 [Example 29, Isopropyl 7-(3-chlorophenyl)-3-oxo-3,4-dihydroquinoxalin-1(2H)-carboxylate]
melting point: 174 to 176 °C

C#C[C@]1(O)CC[C@H]2[C@@H]3CCC4=CC(=O)CC[C@@H]4[C@H]3CC[C@@]21CC [Levonorgestrel]
Estimated average EC50 for dose-response curves (decidual response) [1]: 0.10 mg/kg, s.c.

CC#C[C@]1(O)CC[C@H]2[C@@H]3CCC4=CC(=O)CCC4=C3[C@@H](c3ccc(N(C)C)cc3)C[C@@]21C [RU486]
IC50 ([4]; read-out: Estimated IC50 (half-maximal decrease in trimegestone induced BrdU incorporation), in presence of 0.03 nM trimegestone (b226 prints 0.1), individual studies): 0.016 nM and 0.018 nM

C[C@H](O)C(=O)[C@@]1(C)CC[C@H]2[C@@H]3CCC4=CC(=O)CCC4=C3CC[C@@]21C [Trimegestone]
EC50 ([4]; individual studies, read-out: Estimated EC50 (half-maximal increase in BrdU incorporation)): 0.017 nM and 0.014 nM and 0.019 nM
